Measurements from patent US6004966A, “Use of xanthine oxidase inhibitors as anti-ischaemic agents” (BTG International Limited, priority 1994, dated 1999).
Read-outs that look alike come from different tables or passages of the source.

Legend:
[1] = biological target: bovine xanthine oxidase (Bos taurus, UniProt P80457); test: Further xanthine oxidase inhibition studies, steady-state kinetic analysis (uric acid formation); assay type: biochemical; conditions: 37° C.; for manner of xanthine oxidase inhibition: pH 7.4, inhibitors 1-3 μM
Method: The study was conducted at 37° C. using 30 mU/ml bovine xanthine oxidase in 50 mM phosphate buffer (ph 7.4). The initial rate of uric acid formation was determined spectrophotometrically (292 nm) in the presence of varying concentrations of xanthine (5, 7.5, 10, 15 and 20 μM) and the inhibitors (1-3 μM). Enzyme-inhibitor dissociation constant (Ki) values were calculated from the apparent 1/Vmax values obtained at different inhibitor concentrations.

[2] = biological target: xanthine oxidase (Bos taurus, UniProt P80457); test: Xanthine oxidase inhibition assay (superoxide-dependent cytochrome c reduction); assay type: biochemical; conditions: for % Inhibition (of initial rate of reaction) / inhibition at 1 µM / inhibition at 5 µM / inhibition at 10 µM / inhibition at 50 µM: n=3; for inhibition at 1 µM / inhibition at 5 µM / inhibition at 10 µM / inhibition at 50 µM: read-out: % Inhibition (of initial rate of reaction); for xanthine oxidase inhibition, result in words: statement under Table 4
Method: Superoxide produced from the oxidation of varying concentrations of xanthine to uric acid in the presence of xanthine oxidase (5×10^-3 U/ml) was quantified by the superoxide dismutase inhibitable reduction of […] (10 μM) at 550 nm with respect to time. Enzyme inhibition was determined at varying concentrations of the inhibitors.

[3] = Hydroxyl radical scavenging activity (inhibition of NPG hydroxylation by peroxynitrous acid); conditions: n=3
Method: Antioxidant activity is based on the selective hydroxylation of NPG (N,N'-[5-nitro-1,3-phenylene] bisglutaramide) by hydroxyl radicals produced from peroxynitrous acid (1 mM) by the addition of peroxynitrite stabilised in base to a mixture of NPG (1 mM) and varying concentrations of the anti-ischaemic agents prepared in 0.2M phosphate buffer, pH 7. The solutions were analysed by RP-HPLC. NPS (50 mM), an analogue of NPG, was used as an internal standard. Inhibition of hydroxylation of NPG is a direct measure of the hydroxyl radical scavenging ability of the inhibitors.
Values are expressed as percentage scavenging of the hydroxyl radicals % standard deviation, n=3.

[4] = tested on: rat hearts; test: Heart ischaemia reperfusion studies (Langendorff perfused rat hearts); design: species or system Wistar rats; conditions: 150 μM in reperfusion perfusate, after 60 min aerobic perfusion following 50 min ischaemia, ±sem
Method: Adult male Wistar rats (240-320 g) were anaesthetised intraperitoneally (i.p.) with sodium pentobarbital (Sagatal; 60 mg/kg and heparinised (100 IU/100 g body weight) through the femoral vein, and the heart excised in cold Krebs buffer. By Langendorff technique, the hearts were perfused at a constant pressure (100 mm H2 O) with Krebs bicarbonate buffer. The study was initiated by 30 min aerobic perfusion followed by a 50 min period of global ischaemia, achieved by clamping perfusion flow into the aorta, and finally by reperfusion over 60 min. A ballon was inserted into the left ventricle and inflated to a left ventricular end diastolic pressure (LVEDP) of 4 mm Hg and used to measure left ventricular developed pressure (LVDP) and heart rate (HR). In addition, the coronary effluent was collected over timed intervals as a measure of coronary flow (CF). Assessment of function was made 20 min after the start of the study and at 10 min intervals thereafter. SL301 treated hearts followed a similar protocol as above except that the drug was present in the reperfusion perfusate following the ischaemic insult.

[5] = Table 1, [Xanthine] = 50 μM, inhibitor 1 μM
[6] = Table 1, [Xanthine] = 50 μM, inhibitor 5 μM
[7] = Table 1, [Xanthine] = 50 μM, inhibitor 10 μM
[8] = Table 1, [Xanthine] = 50 μM, inhibitor 50 μM
[9] = Table 2, [Xanthine] = 25 μM, inhibitor 5 μM
[10] = Table 2, [Xanthine] = 25 μM, inhibitor 10 μM
[11] = Table 2, [Xanthine] = 25 μM, inhibitor 50 μM
[12] = Table 3, [Xanthine] = 25 μM, inhibitor 1 μM
[13] = Table 3, [Xanthine] = 25 μM, inhibitor 5 μM
[14] = Table 3, [Xanthine] = 25 μM, inhibitor 10 μM
[15] = Table 3, [Xanthine] = 25 μM, inhibitor 50 μM
[16] = Table 4, [Xanthine] = 8 μM, inhibitor 1 μM
[17] = Table 4, [Xanthine] = 8 μM, inhibitor 5 μM
[18] = Table 4, [Xanthine] = 8 μM, inhibitor 10 μM
[19] = Table 4, [Xanthine] = 8 μM, inhibitor 50 μM
[20] = Table 2, [Xanthine] = 25 μM, inhibitor 1 μM

Chain of bovine xanthine oxidase (P80457 whole entry): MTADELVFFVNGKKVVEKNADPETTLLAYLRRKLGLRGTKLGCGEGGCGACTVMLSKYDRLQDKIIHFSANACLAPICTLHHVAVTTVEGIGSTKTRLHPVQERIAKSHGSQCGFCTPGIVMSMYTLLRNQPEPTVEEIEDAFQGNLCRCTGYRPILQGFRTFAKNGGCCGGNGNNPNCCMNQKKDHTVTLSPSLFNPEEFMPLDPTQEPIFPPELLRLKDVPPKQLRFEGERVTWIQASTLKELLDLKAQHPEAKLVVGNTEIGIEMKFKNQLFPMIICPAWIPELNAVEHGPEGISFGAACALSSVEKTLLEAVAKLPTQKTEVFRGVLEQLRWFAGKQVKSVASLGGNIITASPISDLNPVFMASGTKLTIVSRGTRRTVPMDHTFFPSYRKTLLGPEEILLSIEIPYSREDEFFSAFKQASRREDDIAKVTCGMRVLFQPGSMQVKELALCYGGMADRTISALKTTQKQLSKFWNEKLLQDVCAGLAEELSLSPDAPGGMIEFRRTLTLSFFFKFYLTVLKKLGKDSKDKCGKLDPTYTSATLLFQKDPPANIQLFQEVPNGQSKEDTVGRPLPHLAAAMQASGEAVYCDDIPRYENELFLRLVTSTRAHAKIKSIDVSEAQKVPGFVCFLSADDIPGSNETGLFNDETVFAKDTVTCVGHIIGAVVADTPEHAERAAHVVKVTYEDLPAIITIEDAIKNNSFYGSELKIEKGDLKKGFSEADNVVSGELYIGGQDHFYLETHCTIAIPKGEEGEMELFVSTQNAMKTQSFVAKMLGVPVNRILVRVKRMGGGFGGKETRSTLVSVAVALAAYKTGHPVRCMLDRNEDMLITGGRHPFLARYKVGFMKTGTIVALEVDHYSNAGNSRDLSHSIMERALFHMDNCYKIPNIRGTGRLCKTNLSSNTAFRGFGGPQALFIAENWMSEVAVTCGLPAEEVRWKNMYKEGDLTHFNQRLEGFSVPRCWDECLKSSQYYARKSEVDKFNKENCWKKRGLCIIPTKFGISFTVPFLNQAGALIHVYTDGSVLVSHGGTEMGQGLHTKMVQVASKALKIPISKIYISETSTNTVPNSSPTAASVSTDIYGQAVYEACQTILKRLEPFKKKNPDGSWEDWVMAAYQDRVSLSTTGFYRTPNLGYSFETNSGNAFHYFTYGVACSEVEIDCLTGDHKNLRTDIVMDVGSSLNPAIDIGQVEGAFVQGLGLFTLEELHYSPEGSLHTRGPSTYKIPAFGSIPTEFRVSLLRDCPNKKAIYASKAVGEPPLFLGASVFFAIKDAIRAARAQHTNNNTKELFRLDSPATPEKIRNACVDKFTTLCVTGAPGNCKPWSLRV
Chain of xanthine oxidase (P80457 whole entry): as above

| Compound | inhibition at 5 µM [2, 6] [%] | inhibition at 10 µM [2, 7] [%] | inhibition at 50 µM [2, 8] [%] | inhibition at 1 µM [2, 20] [%] | inhibition at 5 µM [2, 9] [%] | inhibition at 10 µM [2, 10] [%] | inhibition at 50 µM [2, 11] [%] | inhibition at 5 µM [2, 13] [%] | inhibition at 10 µM [2, 14] [%] | inhibition at 50 µM [2, 15] [%] | inhibition at 1 µM [2, 16] [%] | inhibition at 5 µM [2, 17] [%] | inhibition at 10 µM [2, 18] [%] | inhibition at 50 µM [2, 19] [%] | xanthine oxidase inhibition, result in words [2] | % Activity (percentage scavenging of the hydroxyl radical) ([3]; Antioxidant Ratio 0.1) [%] | % Activity (percentage scavenging of the hydroxyl radical) ([3]; Antioxidant Ratio 0.5) [%] | % Activity (percentage scavenging of the hydroxyl radical) ([3]; Antioxidant Ratio 1.0) [%] | % Activity (percentage scavenging of the hydroxyl radical) ([3]; Antioxidant Ratio 5.0) [%] | further results |
| --- | --- | --- | --- | --- | --- | --- | --- | --- | --- | --- | --- | --- | --- | --- | --- | --- | --- | --- | --- | --- |
| Oc1ncnc2[nH]ncc12 [Allopurinol, allopurinol, reference compound] |  |  |  |  |  |  |  |  |  |  |  |  |  |  |  |  |  |  |  | manner of xanthine oxidase inhibition [1]: competitive; % Inhibition (of initial rate of reaction) [2, 5]: 13.83%; % Inhibition (of initial rate of reaction) [2, 6]: 22.90%; % Inhibition (of initial rate of reaction) [2, 7]: 20.63%; % Inhibition (of initial rate of reaction) [2, 8]: 59.18%; % Inhibition (of initial rate of reaction) [2, 9]: 2.41%; % Inhibition (of initial rate of reaction) [2, 10]: 14.09%; % Inhibition (of initial rate of reaction) [2, 11]: 58.76%; % Inhibition (of initial rate of reaction) [2, 12]: 23.88%; % Inhibition (of initial rate of reaction) [2, 13]: 64.57%; % Inhibition (of initial rate of reaction) [2, 14]: 44.88%; % Inhibition (of initial rate of reaction) [2, 15]: 68.50%; % Inhibition (of initial rate of reaction) [2, 16]: 17.40%; % Inhibition (of initial rate of reaction) [2, 17]: 29.20%; % Inhibition (of initial rate of reaction) [2, 18]: 49.85%; % Inhibition (of initial rate of reaction) [2, 19]: 73.45% |
| O=c1[nH]c(=O)c2c[nH]nc2[nH]1 [Oxypurinol, oxypurinol, reference compound] | 24.8 | 32.3 | 67.4 | 2.26 | 37.3 | 42.4 | 62.4 | 46.1 | 30.8 | 43.6 | 6.06 | 33.3 | 45.5 | 48.5 |  |  |  |  |  | inhibition at 1 µM [2, 5]: 2.26%; inhibition at 1 µM [2, 12]: 15.4% |
| O=c1c2cn[nH]c2ncn1O [SL100, 1, hydroxy-6-oxypyrazolo-[3,4-d]-pyrimidine] |  |  |  |  |  |  |  |  |  |  |  |  |  |  | inactive | 6.56 | 37.70 | 65.58 | 100 |  |
| O=c1[nH]c2[nH]ncc2c(=O)n1O [SL101, 2,6-dioxo-1-hydroxypyrazolo-[3,4-d]-pyrimidine] |  |  |  |  |  |  |  |  |  |  |  |  |  |  | inactive | 8.25 | 20.96 | 39.71 | 72.79 |  |
| O=c1c2[nH]cnc2ncn1O [SL200, 1-hydroxy-6-oxopurine] |  |  |  |  |  |  |  |  |  |  |  |  |  |  | inactive | 25.13 | 48.49 | 69.54 | 90.09 |  |

Continued, in another order:

| inhibition at 5 µM [2, 6] [%] | inhibition at 10 µM [2, 7] [%] | inhibition at 50 µM [2, 8] [%] | inhibition at 1 µM [2, 20] [%] | inhibition at 5 µM [2, 9] [%] | inhibition at 10 µM [2, 10] [%] | inhibition at 50 µM [2, 11] [%] | inhibition at 5 µM [2, 13] [%] | inhibition at 10 µM [2, 14] [%] | inhibition at 50 µM [2, 15] [%] | inhibition at 1 µM [2, 16] [%] | inhibition at 5 µM [2, 17] [%] | inhibition at 10 µM [2, 18] [%] | inhibition at 50 µM [2, 19] [%] | xanthine oxidase inhibition, result in words [2] | Compound | % Activity (percentage scavenging of the hydroxyl radical) ([3]; Antioxidant Ratio 0.1) [%] | % Activity (percentage scavenging of the hydroxyl radical) ([3]; Antioxidant Ratio 0.5) [%] | % Activity (percentage scavenging of the hydroxyl radical) ([3]; Antioxidant Ratio 1.0) [%] | % Activity (percentage scavenging of the hydroxyl radical) ([3]; Antioxidant Ratio 5.0) [%] | further results |
| --- | --- | --- | --- | --- | --- | --- | --- | --- | --- | --- | --- | --- | --- | --- | --- | --- | --- | --- | --- | --- |
|  |  |  |  |  |  |  |  |  |  |  |  |  |  | inactive | O=c1[nH]c2[nH]cnc2c(=O)n1O [SL201] |  |  |  |  |  |
| 1.84 | 14.2 | 16 | 13.8 | 9.09 | 16.1 | 34.7 | 5.55 | 11.1 | 27.8 | 6.15 | 12.6 | 19.1 | 38.5 |  | O=c1c2nccnc2ncn1O [SL300, 1-hydroxy-6-oxypyrazino-[2,3-d]-pterine] |  | 6.04 | 26.58 | 68.58 |  |
| 31.8 | 39.6 | 63.2 | 37.1 | 51 | 58 | 72 | 41.7 | 58.3 | 77.8 | 22.3 | 41.8 | 49.8 | 70.9 |  | O=c1[nH]c2nccnc2c(=O)n1O [SL301] | 9.80 | 18.00 | 45.90 | 70.21 | Ki ([1]; 30 mU/ml bovine xanthine oxidase, 50 mM phosphate buffer pH 7.4, xanthine 5-20 μM): 700 nM; manner of xanthine oxidase inhibition [1]: competitive; inhibition at 1 µM [2, 5]: 29.1%; inhibition at 1 µM [2, 12]: 25%; % recovery of pre-ischaemic LVDP (left ventricular developed pressure) ([4]; control 41 ± 13): 76 ± 9%; % recovery of pre-ischaemic HR (heart rate) ([4]; control 49 ± 13): 90 ± 6%; % recovery of pre-ischaemic CF (coronary flow) ([4]; control 83 ± 6): 72 ± 4% |
